Earlier results on four compounds are cited in patent US9669111B2, “Device for the diagnosis of inflammatory tissues in dental applications” (THOMMEN MEDICAL AG, priority 2012, dated 2017).

Where a name gives a salt, the structure may show the parent alone.

In data set [1] the test system is human volunteers (bitter taste). The note with it: reciprocal of the dilution barely noticed as bitter; reference for calibration.
For another data set, the system named is human tongue. The note with it: for concentration sensed down to (taste recognition): human tongue, average human.

Turning to `C=C[C@H]1C[N@@]2CC[C@H]1C[C@H]2[C@H](O)c1ccnc2ccc(OC)cc12` [quinine-HCl], the bitter value in data set [1] is recorded as 200,000.

`O=C1NS(=O)(=O)c2ccccc21` [saccharin]: in the data set with human tongue, the “concentration sensed down to (taste recognition)” value is listed as 0.02 mM. Consider `C=C[C@H]1C[N@@]2CC[C@H]1C[C@H]2[C@H](O)c1ccnc2ccc(OC)cc12` [quinine], for which, in the data set with human tongue (human), the sensory recognition threshold result is listed as “about 0.0004 mmol/L”. Turning to `C=C[C@H]1C[N@@]2CC[C@H]1C[C@H]2[C@H](O)c1ccnc2ccc(OC)cc12` [Quinine sulfate], the “concentration sensed down to (taste recognition)” value in the data set with human tongue is on record as 0.0004 mM.
